#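 Five compound concentrations were applied to cells in 96-well plates for 48 hours; endpoints were derived by simple linear interpolation of the resulting dose-response curve. GI50: concentration for 50% inhibition of growth. The concentration for full growth arrest is given as TGI.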
# How the values were obtained:
# Experiment in all cases: NCI-60 cell line screen, 48 h
# [1] = test system: CAKI-1 renal
# [2] = test system: HL-60(TB) leukemia
# [3] = test system: KM12 colon
# [4] = test system: MOLT-4 leukemia
# [5] = test system: OVCAR-4 ovarian
# [6] = test system: SR leukemia
# [7] = test system: TK-10 renal
# [8] = test system: UO-31 renal
# [9] = test system: OVCAR-5 ovarian
# [10] = test system: PC-3 prostate
SMILES,TGI [1],TGI [2],TGI [3],TGI [4],TGI [5],TGI [6],TGI [7],TGI [8],TGI [9],GI50 [1],GI50 [3],GI50 [5],GI50 [9],GI50 [10],TGI [10],GI50 [6],GI50 [7],GI50 [8],GI50 [2],GI50 [4]
CS(=O)(=O)NNS(=O)(=O)c1ccccc1,> 100 µM,> 100 µM,> 100 µM,> 100 µM,> 100 µM,> 100 µM,> 100 µM,> 100 µM,,,,,,,,,,,,
COC(=O)CCC1CCc2c(OC)ccc(OC)c2C1=O (stereo not drawn),,> 100 µM,> 100 µM,> 100 µM,> 100 µM,> 100 µM,> 100 µM,> 100 µM,> 100 µM,,,,,,,,,,,
COc1ccc2c(c1)CC[C@@H]1[C@@H]2CC[C@]2(C)[C@@H](NC(=O)/C=C/c3ccc(O)c(O)c3)CC[C@@H]12,4.09 µM,,5.88 µM,,74.7 µM,4.21 µM,6.6 µM,15 µM,20.7 µM,2.03 µM,2.28 µM,11.9 µM,6.37 µM,2.17 µM,12.5 µM,1.51 µM,1.47 µM,1.26 µM,,
CN=C(NC(=S)N(C)C)N(C)C,> 100 µM,> 100 µM,> 100 µM,> 100 µM,> 100 µM,> 100 µM,> 100 µM,> 100 µM,> 100 µM,,,,,,,,,,,
Cc1nnc2c3nnc(C)n3c3ccccc3n12,> 100 µM,,> 100 µM,> 100 µM,> 100 µM,,> 100 µM,> 100 µM,> 100 µM,,,,,,,,,,,
N#CC1CCCCOCCOCCOCCOCCOCCCCCC1=O (stereo not drawn),> 100 µM,> 100 µM,> 100 µM,> 100 µM,> 100 µM,> 100 µM,> 100 µM,> 100 µM,> 100 µM,,,,,,,,,,,
Cc1cc(-c2ccccc2)nc(Nc2nc3ccccc3o2)n1,> 100 µM,> 100 µM,> 100 µM,> 100 µM,> 100 µM,> 100 µM,> 100 µM,> 100 µM,> 100 µM,,,,,,,,,,,
O=[N+]([O-])c1ccc(Cl)c(C2CC(c3cccc4ccccc34)=Nc3ccccc3S2)c1 (stereo not drawn),> 100 µM,26.2 µM,> 100 µM,> 56.9 µM,> 100 µM,68.9 µM,> 100 µM,> 66.8 µM,> 100 µM,,,,,,,,,,,
Cc1ccc(NC(=O)C2C(=O)N(c3ccc(C)c(C)c3)C(=O)/C2=N\NC(N)=O)cc1C (stereo not drawn),> 100 µM,> 100 µM,> 100 µM,> 100 µM,> 100 µM,,> 100 µM,> 100 µM,> 100 µM,,,,,,,,,,,
CCCCCCCCCCCCCCCCNCCCN(C)CCCN,35.8 µM,42.4 µM,33 µM,94.1 µM,32.9 µM,42.2 µM,29.3 µM,31.6 µM,31.7 µM,,,,,,,,,,,
COc1ccccc1C1=C(Nc2ccccc2)C(=O)NC1=O,> 25 µM,> 25 µM,> 25 µM,> 25 µM,> 25 µM,,> 25 µM,> 25 µM,> 25 µM,> 25 µM,> 23.8 µM,> 25 µM,> 25 µM,> 25 µM,> 25 µM,,> 25 µM,> 25 µM,> 25 µM,> 25 µM
O=[N+]([O-])c1ccc(-c2noc(-c3ccc(Cl)cc3)c2C2=NCCN2)cc1,> 100 µM,> 100 µM,> 100 µM,> 100 µM,> 100 µM,> 100 µM,,> 100 µM,> 100 µM,,,,,,,,,,,
C=C1C(=O)O[C@H]2[C@H]1CC/C(COC(=O)CCSCCC(=O)OC/C1=C/CC[C@@]3(C)O[C@H]3[C@H]3OC(=O)C(=C)[C@@H]3CC1)=C\CC[C@@]1(C)O[C@@H]21,3.12 µM,,3.52 µM,2.12 µM,3.71 µM,,2.98 µM,2.27 µM,4.21 µM,1.62 µM,1.75 µM,1.66 µM,2.11 µM,1.82 µM,4.8 µM,,1.5 µM,1.07 µM,,0.422 µM
S=C(Nc1ccc(N=Nc2ccccc2)cc1)SCc1ccccc1,32.9 µM,,30.6 µM,27.9 µM,33.2 µM,,25.5 µM,34.9 µM,,,,,,,30.6 µM,,,,,
Cc1cccc(C(C)C)c1N1C(=O)C(=O)C(c2nc3ccccc3o2)C(=O)C1=O,> 100 µM,80.9 µM,> 100 µM,63.8 µM,> 100 µM,> 100 µM,> 100 µM,> 100 µM,> 100 µM,,,,,,,,,,,
O=C(CCC(=O)Nc1ccc(Cl)c(Cl)c1)CC(=O)c1ccc(F)cc1,> 100 µM,> 100 µM,> 100 µM,> 100 µM,> 100 µM,> 100 µM,,> 100 µM,> 100 µM,,,,,,,,,,,
O=C(CSc1ncn[nH]1)C[P+](c1ccccc1)(c1ccccc1)c1ccccc1,> 100 µM,> 100 µM,> 100 µM,> 100 µM,> 100 µM,,> 100 µM,> 100 µM,> 100 µM,,,,,,,,,,,
CN(C)c1ccc(/C=C/c2ccc(/C=C/c3ccc(N(C)C)cc3)cc2)cc1,> 100 µM,> 100 µM,> 100 µM,> 100 µM,> 100 µM,,> 100 µM,> 100 µM,> 100 µM,,,,,,,,,,,
CCCCC(C)C(OC(=O)CC(CC(=O)O)C(=O)O)C(CC(C)CC(O)CCCCC(O)CC(O)C(C)N)OC(=O)CC(CC(=O)O)C(=O)O (stereo not drawn),> 100 µM,> 100 µM,> 100 µM,> 100 µM,> 100 µM,> 100 µM,> 100 µM,> 100 µM,> 100 µM,,,,,,,,,,,
O=C(CC1(O)C(=O)Nc2ccc(Br)cc21)c1ccc(Cl)cc1Cl (stereo not drawn),,48.3 µM,> 100 µM,68 µM,> 100 µM,50.7 µM,> 100 µM,> 100 µM,> 100 µM,,,,,,,,,,,
O=S(=O)(O)c1ccc(N=Nc2nc(C(F)(F)F)c(C(F)(F)F)[nH]2)cc1,89.4 µM,> 100 µM,> 100 µM,> 100 µM,50.4 µM,69.9 µM,> 100 µM,> 100 µM,36 µM,,,,,,,,,,,
CN(C)C(=Nc1nc(=[N+](C)C)ss1)N(C)C,> 100 µM,> 100 µM,> 100 µM,> 100 µM,> 100 µM,,> 100 µM,> 100 µM,> 100 µM,,,,,,,,,,,

# — PubChem BioAssay (NCI)
